Where two headings read alike, the source gives them in different places.
Legend:
[1] = oral
Description: Patients were initially treated in cohorts of six per dose level. […] Both drugs were administered orally. […] (Figure 1) The duration of one cycle was 28 days.
Toxicity was evaluated according to the common toxicity criteria for adverse events (AEs) (CTCAEv3.0).

[2] = Pharmacokinetics of sorafenib in plasma (LC/MS/MS, non-compartmental); assay type: in vivo, patients; conditions: for Cmax: human, plasma
Source text: (§1) A paired t-test on log-transformed values was used to calculate changes in AUC, Cmax and t1/2. A P-value ⩽0.05 was considered significant.

[3] = no reference given, cited from earlier work
[4] = Pharmacokinetics of sirolimus in blood (LC/MS/MS, non-compartmental); assay type: in vivo, patients; conditions: for Cmax / AUC(0-t) / half-life: human, whole blood; for half-life: read-out: t ½ (converted)
Source text: as §1

[5] = im, 1 mg, DL IM, sor 400 mg b.i.d., sir 1 mg q.d., cycle 1 day 1, single-dose sir, geometric mean (95% CI), n=3
[6] = im, DL IM, sor 400 mg b.i.d., sir 1 mg q.d., cycle 1 day 16, continuous dosing sor on single-dose sir, geometric mean (95% CI), n=3
[7] = oral, 1 mg, DL 0, sor 200 mg b.i.d., sir 1 mg q.d., cycle 1 day 1, single-dose sir, geometric mean (95% CI), n=6
[8] = oral, 2 mg, DL 1, Sor 200 mg b.i.d., sir 2 mg q.d., cycle 1 day 1, single-dose sir, geometric mean (95% CI), n=6
[9] = oral, DL 0, sor 200 mg b.i.d., sir 1 mg q.d., cycle 1 day 16, continuous dosing sor on single-dose sir, geometric mean (95% CI), n=6
[10] = oral, DL 1, Sor 200 mg b.i.d., sir 2 mg q.d., cycle 1 day 16, continuous dosing sor on single-dose sir, geometric mean (95% CI), n=6

## CNC(=O)c1cc(Oc2ccc(NC(=O)Nc3ccc(Cl)c(C(F)(F)F)c3)cc2)ccn1 [sorafenib]
[1]; combined with sirolimus 1 mg q.d.
  MTD of the combination, sorafenib dose: 200 mg b.i.d.
[2]; DL 1, Sor 200 mg b.i.d., sir 2 mg q.d, cycle 2 day 1, continuous sir on continuous sor, geometric mean (95% CI), n=4
  AUC(0–12 h): 39.3 (21–74) (n=4) mg h l^−1
[2]; DLim, 1 mg sirolimus with 400 mg b.i.d. sorafenib, non-significant, P=0.14
  mean decrease in AUC(0−12 h) of sorafenib: 15%
[2]; DLim, 1 mg sirolimus with 400 mg b.i.d. sorafenib, non-significant, P=0.57
  mean decrease in Cmax of sorafenib: 8%
[2]; im, 400 mg b.i.d., DL IM, Sor 400 mg b.i.d., sir 1 mg q.d., cycle 1 day 15, continuous dosing sor, geometric mean (95% CI), n=4
  Cmax: 13000 ng/mL
[2]; im, DL IM, Sor 400 mg b.i.d., sir 1 mg q.d., cycle 1 day 16, single-dose sir on continuous dosing sor, geometric mean (95% CI), n=4
  Cmax: 11900 ng/mL
[2]; im, DL IM, Sor 400 mg b.i.d., sir 1 mg q.d., cycle 2 day 1, continuous sir on continuous sor, geometric mean (95% CI), n=4
  Cmax: 6640 ng/mL
[2]; im, DL IM, Sor 400 mg b.i.d., sir 1 mg q.d., cycle 2 day 15, continuous sir on continuous sor, geometric mean (95% CI), n=2
  Cmax: 5550 ng/mL
[2]; oral, 200 mg b.i.d., DL 0, Sor 200 mg b.i.d., sir 1 mg q.d., cycle 1 day 15, continuous dosing sor, geometric mean (95% CI), n=6
  Cmax: 7590 ng/mL
[2]; oral, DL 0, Sor 200 mg b.i.d., sir 1 mg q.d., cycle 2 day 1, continuous sir on continuous sor, geometric mean (95% CI), n=6
  Cmax: 7120 ng/mL
[2]; oral, DL 0, Sor 200 mg b.i.d., sir 1 mg q.d., cycle 2 day 15, continuous sir on continuous sor, geometric mean (95% CI), n=6
  Cmax: 7320 ng/mL
[2]; oral, DL 1, Sor 200 mg b.i.d., sir 2 mg q.d, cycle 2 day 1, continuous sir on continuous sor, geometric mean (95% CI), n=4
  Cmax: 5150 ng/mL
[2]; overall statement of abstract
  effect of sirolimus on the PK of sorafenib: did not change
[2]; single oral doses of 1 mg or 2 mg sirolimus, sorafenib 200 mg b.i.d. multiple dosing, P=0.67
  influence of sirolimus on AUC(0−12 h) of sorafenib: did not influence
[2]; single oral doses of 1 mg or 2 mg sirolimus, sorafenib 200 mg b.i.d. multiple dosing, P=0.96
  influence of sirolimus on Cmax of sorafenib: did not influence
[3]
  elimination half-life: 25 to 48 h

## CO[C@H]1C[C@@H]2CC[C@@H](C)[C@@](O)(O2)C(=O)C(=O)N2CCCC[C@H]2C(=O)O[C@H]([C@H](C)C[C@@H]2CC[C@@H](O)[C@H](OC)C2)CC(=O)[C@H](C)/C=C(\C)[C@@H](O)[C@@H](OC)C(=O)[C@H](C)C[C@H](C)/C=C/C=C/C=C/1C [sirolimus]
[1]; combined with sorafenib 200 mg b.i.d.
  MTD of the combination, sirolimus dose: 1 mg q.d.
[4]; DL 0, simultaneous administration of both drugs, P=0.955
  change in mean AUC(0−96 h) of sirolimus: no change
[4]; DL 0, non-significant, P=0.515
  average reduction of Cmax of sirolimus: 18%
[4]; DL 1, pre-treatment with 200 mg b.i.d. sorafenib, P=0.006
  mean decrease of Cmax of sirolimus: 55%
[4]; DL 1, pre-treatment with 200 mg b.i.d. sorafenib, P=0.66
  change of mean terminal half-life of sirolimus: remained unchanged
[4]; DL 1, pre-treatment with 200 mg b.i.d. sorafenib, non-significant, P=0.125
  decrease of AUC(0−96 h) of sirolimus: 37%
[4]; DLim, P=0.027
  average decrease of Cmax of sirolimus: 55%
[4]; DLim, P=0.363
  average decrease of AUC(0−96 h) of sirolimus: 25%
[4]; [5]
  Cmax: 7.99 ng/mL
  half-life: 2300 min
[4]; im, 1 mg, DL IM, sor 400 mg b.i.d., sir 1 mg q.d., cycle 1 day 1, single-dose sir, geometric mean (95% CI), n=3, read-out: AUC(0–96 h)
  AUC(0-t): 139 ng·h/mL
[4]; im, AUC(0–12 h), DL IM, sor 400 mg b.i.d., sir 1 mg q.d., cycle 2 day 1, continuous sor on continuous sir, geometric mean (95% CI), n=2
  AUC(0-t): 101 ng·h/mL
[4]; im, AUC(0–12 h), DL IM, sor 400 mg b.i.d., sir 1 mg q.d., cycle 2 day 15, continuous sor on continuous sir, n=2
  AUC(0-t): 113 ng·h/mL
[4]; [6]
  Cmax: 3.62 ng/mL
  half-life: 1970 min
[4]; im, DL IM, sor 400 mg b.i.d., sir 1 mg q.d., cycle 1 day 16, continuous dosing sor on single-dose sir, geometric mean (95% CI), n=3, read-out: AUC(0–96 h)
  AUC(0-t): 104 ng·h/mL
[4]; im, DL IM, sor 400 mg b.i.d., sir 1 mg q.d., cycle 2 day 1, continuous sor on continuous sir, geometric mean (95% CI), n=2
  Cmax: 11.2 ng/mL
[4]; im, DL IM, sor 400 mg b.i.d., sir 1 mg q.d., cycle 2 day 15, continuous sor on continuous sir, geometric mean (95% CI), n=2
  Cmax: 13.7 ng/mL
[4]; [7]
  Cmax: 3.81 ng/mL
  half-life: 2730 min
[4]; oral, 1 mg, DL 0, sor 200 mg b.i.d., sir 1 mg q.d., cycle 1 day 1, single-dose sir, geometric mean (95% CI), n=6, read-out: AUC(0–96 h)
  AUC(0-t): 91.1 ng·h/mL
[4]; [8]
  Cmax: 5.74 ng/mL
  half-life: 3030 min
[4]; oral, 2 mg, DL 1, Sor 200 mg b.i.d., sir 2 mg q.d., cycle 1 day 1, single-dose sir, geometric mean (95% CI), n=6, read-out: AUC(0–96 h)
  AUC(0-t): 124 ng·h/mL
[4]; oral, AUC(0–12 h), DL 0, sor 200 mg b.i.d., sir 1 mg q.d., cycle 2 day 1, continuous sor on continuous sir, geometric mean (95% CI), n=6
  AUC(0-t): 59.4 ng·h/mL
[4]; oral, AUC(0–12 h), DL 0, sor 200 mg b.i.d., sir 1 mg q.d., cycle 2 day 15, continuous sor on continuous sir, geometric mean (95% CI), n=6
  AUC(0-t): 57.8 ng·h/mL
[4]; oral, AUC(0–12 h), DL 1, Sor 200 mg b.i.d., sir 2 mg q.d., cycle 2 day 1, continuous sor on continuous sir, geometric mean (95% CI), n=4
  AUC(0-t): 88.2 ng·h/mL
[4]; oral, AUC(0–12 h), DL 1, Sor 200 mg b.i.d., sir 2 mg q.d., cycle 2 day 15, continuous sor on continuous sir, n=1
  AUC(0-t): 84.6 ng·h/mL
[4]; [9]
  Cmax: 3.14 ng/mL
  half-life: 3370 min
[4]; oral, DL 0, sor 200 mg b.i.d., sir 1 mg q.d., cycle 1 day 16, continuous dosing sor on single-dose sir, geometric mean (95% CI), n=6, read-out: AUC(0–96 h)
  AUC(0-t): 91.7 ng·h/mL
[4]; oral, DL 0, sor 200 mg b.i.d., sir 1 mg q.d., cycle 2 day 1, continuous sor on continuous sir, geometric mean (95% CI), n=6
  Cmax: 6.3 ng/mL
[4]; oral, DL 0, sor 200 mg b.i.d., sir 1 mg q.d., cycle 2 day 15, continuous sor on continuous sir, geometric mean (95% CI), n=6
  Cmax: 6.36 ng/mL
[4]; [10]
  Cmax: 2.6 ng/mL
  half-life: 3150 min
[4]; oral, DL 1, Sor 200 mg b.i.d., sir 2 mg q.d., cycle 1 day 16, continuous dosing sor on single-dose sir, geometric mean (95% CI), n=6, read-out: AUC(0–96 h)
  AUC(0-t): 78.2 ng·h/mL
[4]; oral, DL 1, Sor 200 mg b.i.d., sir 2 mg q.d., cycle 2 day 1, continuous sor on continuous sir, geometric mean (95% CI), n=5
  Cmax: 10 ng/mL
[4]; oral, DL 1, Sor 200 mg b.i.d., sir 2 mg q.d., cycle 2 day 15, continuous sor on continuous sir, n=2
  Cmax: 17.6 ng/mL
[4]; overall statement of abstract
  effect of sorafenib on AUC(0−96) and Cmax of sirolimus: reduced
[3]
  time until mean steady-state concentrations are achieved: 5 to 7 days
[3]; stable renal transplant recipients
  terminal half-life: 62 ± 12 h
